Measurements reported in patent US20240293380A1, “PROTEASE INHIBITORS AND METHODS OF USE” (priority 2021, published 2024).

biological target: SARS-CoV-2 3CLpro (Severe acute respiratory syndrome coronavirus 2 (2019-nCoV) (SARS-CoV-2), UniProt P0DTD1); type: biochemical

`O=C(Cc1cncc(C2CC2)c1)N(Cc1cc(F)cc(Cl)c1)c1ccc(C2CNC2)cc1` [Compound 79] and `O=C(Cc1cncc(C2CC2)c1)N(Cc1cc(F)cc(Cl)c1)c1ccc(-c2c[nH]cn2)cc1` [Compound 71] are within 1.5-fold of each other in IC50: 112 nM for the first, 115 nM for the second.

Going from `O=C(Cc1cncc2ccccc12)N(Cc1cccc(Cl)c1)c1ccc(-c2cn[nH]c2)cc1` [Compound 2, N-[(3-chlorophenyl)methyl]-2-(4-isoquinolyl)-N-[4-(1H-pyrazol-4-yl)phenyl]acetamide] to `O=C(Cc1cncc2ccccc12)N(Cc1cccc(F)c1)c1ccc(-c2c[nH]cn2)cc1` [Compound 26], the IC50 rises from 30 nM to 351 nM (12-fold).

`O=C(Cc1cncc(Br)c1)N(Cc1cc(F)cc(F)c1)c1ccc(-c2c[nH]cn2)cc1` [Compound 65] and `O=C(Cc1cncc(F)c1)N(Cc1cc(F)cc(Cl)c1)c1ccc(-c2c[nH]cn2)cc1` [Compound 69] are within 1.5-fold of each other in IC50: 187 nM for the first, 220 nM for the second.

`O=C(Cc1cncc2ccccc12)N(Cc1cc(F)cc(OC(F)(F)F)c1)c1ccc(-c2c[nH]cn2)cc1` [Compound 61] and `COc1cc(F)cc(CN(C(=O)Cc2cncc3ccccc23)c2ccc(-c3c[nH]cn3)cc2)c1` [Compound 54] are within 1.5-fold of each other in IC50: 113 nM for the first, 90 nM for the second.

First: O=C(Cc1cncc2ccccc12)N(Cc1cc(Cl)ccc1F)c1ccc(-c2c[nH]cn2)cc1 [Compound 15]
Second: O=C(Cc1cncc2ccccc12)N(Cc1cc(F)ccc1F)c1ccc(-c2c[nH]cn2)cc1 [Compound 23]
The IC50 of the first is 1.9-fold higher: 308 nM for the first, 159 nM for the second.

Compared with `O=C(Cc1cnccc1C(F)(F)F)N(Cc1cc(F)cc(Cl)c1)c1ccc(-c2c[nH]cn2)cc1` [Compound 75], `O=C(Cc1cnccc1Cl)N(Cc1cc(F)cc(Cl)c1)c1ccc(-c2c[nH]cn2)cc1` [Compound 76] is 3.2-fold lower in IC50: 1000 nM for the first, 311 nM for the second.

Going from `O=C(Cc1cncc2ccccc12)N(Cc1cccc(F)c1F)c1ccc(-c2c[nH]cn2)cc1` [Compound 25] to `O=C(Cc1cncc2ccccc12)N(Cc1cccc(Cl)c1F)c1ccc(-c2c[nH]cn2)cc1` [Compound 16], the IC50 rises from 184 nM to 370 nM (2-fold).

Compared with `CC(C)CN(C(=O)Cc1nnc2ccccn12)c1ccc(-c2c[nH]cn2)cc1` [Compound 46], `O=C(Cc1nnc2ccccn12)N(Cc1cccc(F)c1)c1ccc(-c2c[nH]cn2)cc1` [Compound 47] is 13-fold lower in IC50: 8100 nM for the first, 621 nM for the second. The second is the more potent here.

First: O=C(Cc1cncnc1)N(Cc1cc(F)cc(Cl)c1)c1ccc(-c2c[nH]cn2)cc1 [Compound 48]
Second: Cc1cncc(CC(=O)N(Cc2cc(F)cc(Cl)c2)c2ccc(-c3c[nH]cn3)cc2)c1 [Compound 70]
The IC50 of the first is 6.5-fold higher: 542 nM for the first, 84 nM for the second.

Going from `O=C(Cc1cncc2ccccc12)N(Cc1cc(F)cc(Cl)c1)c1ccc(-c2c[nH]cn2)cn1` [Compound 29] to `COc1cc(Cl)cc(CN(C(=O)Cc2cncc3ccccc23)c2ccc(-c3c[nH]cn3)cc2)c1` [Compound 19], the IC50 rises from 40 nM to 100 nM (2.5-fold).

Going from `O=C(Cc1cncc2ccccc12)N(Cc1cncc(Cl)c1)c1ccc(-c2c[nH]cn2)cc1` [Compound 17] to `O=C(Cc1cncc2ccccc12)N(Cc1cncc(F)c1)c1ccc(-c2c[nH]cn2)cc1` [Compound 40], the IC50 falls from 101 nM to 53 nM (1.9-fold).

Going from `O=C(Cc1nnc2ccc(F)cn12)N(Cc1cccc(Cl)c1)c1ccc(-c2cn[nH]c2)cc1` [Compound 3, N-[(3-chlorophenyl)methyl]-2-(6-fluoro-[1,2,4]triazolo[4,3-a]pyridin-3-yl)-N-[4-(1H-pyrazol-4-yl)phenyl]acetamide] to `O=C(Cc1nnc2ccccn12)N(Cc1cccc(Cl)c1)c1ccc(-c2cn[nH]c2)cc1` [Compound 1, N-[(3-chlorophenyl)methyl]-N-[4-(1H-pyrazol-4-yl)phenyl]-2-([1,2,4]triazolo[4,3-a]pyridin-3-yl)acetamide], the IC50 falls from 3360 nM to 365 nM (9.2-fold). The second is the more potent here.

First: O=C(Cc1nnc2ccccn12)N(Cc1cc(F)ccc1F)c1ccc(-c2c[nH]cn2)cc1 [Compound 22]
Second: O=C(Cc1nnc2ccccn12)N(Cc1cccc(F)c1F)c1ccc(-c2c[nH]cn2)cc1 [Compound 24]
The IC50 of the first is 1.7-fold lower: 786 nM for the first, 1300 nM for the second.

Going from `O=C(Cc1nnc2ccc(F)cn12)N(Cc1cc(F)cc(Cl)c1)c1ccc(-c2c[nH]cn2)cc1` [Compound 10, N-[(3-chloro-5-fluoro-phenyl)methyl]-2-(6-fluoro-[1,2,4]triazolo[4,3-a]pyridin-3-yl)-N-[4-(1H-imidazol-4-yl)phenyl]acetamide] to `O=C(Cc1nnc2ccccn12)N(Cc1cc(F)cc(F)c1)c1ccc(-c2c[nH]cn2)cc1` [Compound 27], the IC50 rises from 77 nM to 209 nM (2.7-fold). The first is the more potent here.

`O=C(Cc1cccnn1)N(Cc1cc(F)cc(F)c1)c1ccc(-c2c[nH]cn2)cc1` [Compound 31] and `O=C(Cc1cccnn1)N(Cc1cc(F)cc(Cl)c1)c1ccc(-c2c[nH]cn2)cc1` [Compound 52] are within 1.5-fold of each other in IC50: 506 nM for the first, 389 nM for the second.

Compared with `N#Cc1ccc(N(Cc2cc(F)cc(F)c2)C(=O)Cc2cncc3ccccc23)cc1` [Compound 38], `NCc1ccc(N(Cc2cc(F)cc(F)c2)C(=O)Cc2cncc3ccccc23)cc1` [Compound 74] is 16-fold lower in IC50: 1250 nM for the first, 76 nM for the second.

Going from `O=C1Nc2ccccc2C1CC(=O)N(Cc1cc(F)cc(Cl)c1)c1ccc(-c2c[nH]cn2)cc1` (centres unmarked) [Compound 59] to `O=C1NC(CC(=O)N(Cc2cc(F)cc(Cl)c2)c2ccc(-c3c[nH]cn3)cc2)c2ccccc21` (centres unmarked) [Compound 50], the IC50 rises from 6240 nM to 30800 nM (4.9-fold). The first is the more potent here.

Compared with `O=C(Cc1cnc2ccccn12)N(Cc1cc(F)cc(Cl)c1)c1ccc(-c2c[nH]cn2)cc1` [Compound 11, N-[(3-chloro-5-fluoro-phenyl)methyl]-2-imidazo[1,2-a]pyridin-3-yl-N-[4-(1H-imidazol-4-yl)phenyl]acetamide], `O=C(Cc1cccnc1)N(Cc1cc(F)cc(Cl)c1)c1ccc(-c2c[nH]cn2)cc1` [Compound 43] is 2.9-fold higher in IC50: 65 nM for the first, 188 nM for the second. The first is the more potent here.

Going from `O=C(Cc1cncc2ccccc12)N(Cc1cc(F)cc(F)c1)c1ccc(C2=CCNC2)cc1` [Compound 56] to `O=C(Cc1cncc2ccccc12)N(Cc1cc(F)cc(Cl)c1)c1ccc(C2=CCNC2)cc1` [Compound 57], the IC50 falls from 139 nM to 81 nM (1.7-fold). The second is the more potent here.

First: O=C(Cc1cncc(F)c1)N(Cc1cncc(F)c1)c1ccc(C2CNC2)cc1 [Compound 83]
Second: O=C(Cc1cncc2ccccc12)N(Cc1cncc(F)c1)c1ccc(C2CNC2)cc1 [Compound 60]
The IC50 of the first is 27-fold higher: 5220 nM for the first, 193 nM for the second. The second is the more potent here.

Going from `O=C(Cc1cncc2ccccc12)N(Cc1cncc(F)c1)c1ccc(C2=CCNC2)cc1` [Compound 68] to `O=C(Cc1cncc2ccccc12)N(Cc1cncc(C(F)(F)F)c1)c1ccc(-c2c[nH]cn2)cc1` [Compound 39], the IC50 falls from 608 nM to 82 nM (7.4-fold). The second is the more potent here.

`COc1ccc(Cl)cc1CN(C(=O)Cc1cncc2ccccc12)c1ccc(-c2c[nH]cn2)cc1` [Compound 18] and `COc1ccc(F)cc1CN(C(=O)Cc1cncc2ccccc12)c1ccc(-c2c[nH]cn2)cc1` [Compound 53] are within 1.5-fold of each other in IC50: 191 nM for the first, 179 nM for the second.

First: COc1ccncc1CC(=O)N(Cc1cc(F)cc(Cl)c1)c1ccc(-c2c[nH]cn2)cc1 [Compound 78]
Second: O=C(Cc1cnccn1)N(Cc1cc(F)cc(Cl)c1)c1ccc(-c2c[nH]cn2)cc1 [Compound 55]
The IC50 of the first is 9.2-fold lower: 222 nM for the first, 2040 nM for the second.

First: O=C(Cc1cccnn1)N(Cc1cccc(Cl)c1)c1ccc(-c2cn[nH]c2)cc1 [Compound 6, N-[(3-chlorophenyl)methyl]-N-[4-(1H-pyrazol-4-yl)phenyl]-2-pyridazin-3-yl-acetamide]
Second: O=C(Cc1cnc2ccccn12)N(Cc1cccc(Cl)c1)c1ccc(-c2cn[nH]c2)cc1 [Compound 4, N-[(3-chlorophenyl)methyl]-2-imidazo[1,2-a]pyridin-3-yl-N-[4-(1H-pyrazol-4-yl)phenyl]acetamide]
The IC50 of the first is 4.3-fold higher: 5000 nM for the first, 1150 nM for the second. The second is the more potent here.

Going from `O=C(Cc1cncc(F)c1)N(Cc1cncc(F)c1)c1ccc(-c2c[nH]cn2)cc1` [Compound 81] to `Cc1ccc2nnc(CC(=O)N(Cc3cc(F)cc(F)c3)c3ccc(-c4c[nH]cn4)cc3)n2n1` [Compound 41], the IC50 falls from 1310 nM to 604 nM (2.2-fold). The second is the more potent here.

`O=C(Cc1cncc2ccccc12)N(Cc1cc(F)cc(Cl)c1)c1ccc(C2CNC2)cc1` [Compound 72] and `O=C(Cc1cncc2ccccc12)N(Cc1cc(F)cc(F)c1)c1ccc(C2CNC2)cc1` [Compound 62] are within 1.5-fold of each other in IC50: 56 nM for the first, 69 nM for the second.

Going from `O=C(Cc1cccnc1)N(Cc1cccc(Cl)c1)c1ccc(-c2c[nH]cn2)cc1` [Compound 44] to `O=C(Cc1cncc2ccccc12)N(Cc1ccc(Cl)c(F)c1)c1ccc(-c2c[nH]cn2)cc1` [Compound 58], the IC50 rises from 414 nM to 1090 nM (2.6-fold). The first is the more potent here.

First: O=C1CNCCN1c1ccc(N(Cc2cc(F)cc(F)c2)C(=O)Cc2cncc3ccccc23)cc1 [Compound 35]
Second: CC(C)(C)NC(=O)C(c1cc(F)cc(F)c1)N(C(=O)Cc1cncc2ccccc12)c1ccc(C2=CCNC2)cc1 (centres unmarked) [Compound 63]
The IC50 of the first is 2.1-fold lower: 481 nM for the first, 1030 nM for the second. The first is the more potent here.

First: CC(C)(C)NC(=O)C(c1cc(F)cc(F)c1)N(C(=O)Cc1cncc2ccccc12)c1ccc(-c2c[nH]cn2)cc1 (centres unmarked) [Compound 64]
Second: C[C@H](c1cc(F)cc(Cl)c1)N(C(=O)Cc1cncc2ccccc12)c1ccc(-c2c[nH]cn2)cc1 [Compound 14]
The IC50 of the first is 3-fold higher: 231 nM for the first, 76 nM for the second.

Going from `CC(C)(C)CN(C(=O)Cc1cncc2ccccc12)c1ccc(-c2c[nH]cn2)cc1` [Compound 45] to `O=C(Cc1nncc2ccccc12)N(Cc1cc(F)cc(Cl)c1)c1ccc(-c2c[nH]cn2)cc1` [Compound 73], the IC50 falls from 356 nM to 61 nM (5.8-fold). The second is the more potent here.

Going from `O=C(Cc1nncc2ccccc12)N(Cc1cc(F)cc(Cl)c1)c1ccc(C2CNC2)cc1` [Compound 82, N-(4-(azetidin-3-yl)phenyl)-N-(3-chloro-5-fluorobenzyl)-2-(phthalazin-1-yl)acetamide] to `O=C(Cc1noc2ccccc12)N(Cc1cc(F)cc(Cl)c1)c1ccc(-c2c[nH]cn2)cc1` [Compound 49], the IC50 rises from 70 nM to 839 nM (12-fold). The first is the more potent here.

`C[C@H](c1cc(F)cc(Cl)c1)N(C(=O)Cc1nnc2ccccn12)c1ccc(-c2c[nH]cn2)cc1` [Compound 13] showed an IC50 of 587 nM.

`O=C(Cc1nnc(-c2ccccc2)o1)N(Cc1cccc(Cl)c1)c1ccc(-c2cn[nH]c2)cc1` [Compound 7, N-[(3-chlorophenyl)methyl]-2-(5-phenyl-1,3,4-oxadiazol-2-yl)-N-[4-(1H-pyrazol-4-yl)phenyl]acetamide] was tested, and the “SARS-CoV-2 IC50 (nM)” value was “Inactive”.
In the case of `O=C(Cc1nnc(-c2ccccc2)s1)N(Cc1cccc(Cl)c1)c1ccc(-c2cn[nH]c2)cc1` [Compound 8, N-[(3-chlorophenyl)methyl]-2-(5-phenyl-1,3,4-thiadiazol-2-yl)-N-[4-(1H-pyrazol-4-yl)phenyl]acetamide], the “SARS-CoV-2 IC50 (nM)” value is reported as “Inactive”.
